Where two headings read alike, the source gives them in different places.

The target of test [1] is T1, SOS1 catalytic domain (residues 564-1049) (Homo sapiens, UniProt Q07889).
T1 sequence (Q07889 564-1049): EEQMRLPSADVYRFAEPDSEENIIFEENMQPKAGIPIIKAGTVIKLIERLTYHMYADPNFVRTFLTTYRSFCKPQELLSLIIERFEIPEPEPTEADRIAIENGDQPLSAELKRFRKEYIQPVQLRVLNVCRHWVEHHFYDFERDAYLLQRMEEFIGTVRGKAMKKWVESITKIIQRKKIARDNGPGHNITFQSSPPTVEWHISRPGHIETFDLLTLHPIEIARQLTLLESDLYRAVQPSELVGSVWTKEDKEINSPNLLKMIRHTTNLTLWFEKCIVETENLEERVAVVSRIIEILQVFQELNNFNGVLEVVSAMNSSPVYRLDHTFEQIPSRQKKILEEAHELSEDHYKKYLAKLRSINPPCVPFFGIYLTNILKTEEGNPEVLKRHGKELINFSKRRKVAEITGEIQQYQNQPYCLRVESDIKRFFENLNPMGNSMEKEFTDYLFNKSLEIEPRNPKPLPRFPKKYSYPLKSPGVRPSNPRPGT
The test is described as follows: Mode of Action Assay: inhibition of SOS1 nucleotide exchange activity (SOS1 TR-FRET IC50 Assay). (In TR-FRET formats the signal depends on donor and acceptor labels being close together.)

In test [2] the test system is PC-9 cells (EGFR Ex19Del). The test is described as follows: Potency Assay: pERK (SOS1 pERK IC50 Assay, AlphaLISA SureFire Ultra p-ERK1/2). The test is classed as cell-based. The settings on record: Homo sapiens, read-out: SOS1 pERK IC50. A digest of the protocol: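 PC-9 (EGFR Ex19Del) cells plated overnight, then treated 1 h at 37° C. with 10-point 3-fold dilutions (top 10 μM final) in duplicate. Lysate pERK1/2 measured by AlphaLISA SureFire Ultra; IC50 from 4-parameter sigmoidal fit.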
In general terms: Bead proximity is the source of the signal in Alpha formats.

Test [3] concerns the target T1, SOS1 catalytic domain (residues 564-1049). The test is described as follows: Potency Assay: binding affinity to SOS1 using Surface Plasmon Resonance (SPR). Further details: SOS1 catalytic domain (residues 564-1049) immobilized on a sensor chip. The settings on record: immobilized SOS1 catalytic domain (residues 564-1049), read-out: SOS1 SPR Equilibrium Kd. In outline:
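Avi-tagged SOS1 catalytic domain captured on streptavidin chip (~6000 RU) in 0.01 M HEPES, 0.15 M NaCl, 0.05% P20. Compound dilution series flowed at 50 μL/min for association, then buffer for dissociation, with double reference subtraction. Kd derived from end-of-association binding response plotted against concentration.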

Where [4] appears, read: PC-9 cells (EGFR Ex19Del), 1 hour incubation, AlphaLISA p-ERK1/2.

In the case of `C[C@@H](Nc1nc(Cl)nc2c1CN(C(=O)N1CCNC3(CC3)C1)C2)c1cccc(C(F)(F)F)c1` [Example 374], the IC50 in test [1] and in test [2] (setting [4]) was under 1000 nM in each case. Besides, in test [3], the dissociation constant Kd is under 400 nM.
Consider `C[C@@H](Nc1nc(Cl)nc2c1CN(C(=O)N1CCN(C3COC3)CC1)C2)c1cccc(C(F)F)c1F` [Example 383], for which the half-inhibitory concentration (IC50) in test [1] and in test [2] (setting [4]) was under 1000 nM throughout. The Kd in test [3] is under 400 nM.
For `C[C@@H](Nc1nc(Cl)nc2c1CN(C(=O)N1CCOCC1)C2)c1cccc2c1COCC2(F)F` [Example 523, 2-chloro-N-[(1R)-1-(4,4-difluoro-3,4-dihydro-1H-2-benzopyran-8-yl)ethyl]-6-(morpholine-4-carbonyl)-5H,6H,7H-pyrrolo[3,4-d]pyrimidin-4-amine], the half-maximal inhibitory concentration (IC50) is under 1000 nM in test [1] and under 1000 nM in test [2] (PC-9, 1 h). Moreover, the equilibrium dissociation constant (Kd) in test [3] was under 400 nM.
`C[C@@H](Nc1nc(Cl)nc2c1CN(S(=O)(=O)C1CC1)CC2)c1cc(N)cc(C(F)(F)F)c1` [Example 452]: the IC50 in test [1] and in test [2] (setting [4]) was under 1000 nM throughout. In test [3], the Kd was under 400 nM.
On to `C[C@@H](Nc1nc(Cl)nc2c1CN(C(=O)C1CCN(C3COC3)CC1)C2)c1cccc(C(F)F)c1F` [Example 336], for which the half-inhibitory concentration (IC50) in test [1] is under 1000 nM; in test [2] (setting [4]) it was over 1000 nM. The Kd in test [3] is under 400 nM.
For `C[C@@H](Nc1nc(Cl)nc2c1CN(C(=O)N1CCNCC(F)C1)C2)c1cccc(C(F)F)c1F` (stereo partly drawn) [Example 404], in that order: under 1000 nM, under 1000 nM and under 400 nM.
On to `C[C@@H](Nc1nc(Cl)nc2c1CN(C(=O)N1CCOCC1)C2)c1cccc(C(F)(F)CN(C)C)c1` [Example 483, 2-chloro-N-[(1R)-1-{3-[2-(dimethylamino)-1,1-difluoroethyl]phenyl}ethyl]-6-(morpholine-4-carbonyl)-5H,6H,7H-pyrrolo[3,4-d]pyrimidin-4-amine], for which the concentration for half-maximal inhibition (IC50) was under 1000 nM in test [1] and over 1000 nM in test [2] (setting [4]). The Kd in test [3] is under 400 nM.
For the compound `C[C@@H](Nc1nc(Cl)nc2c1CN(C(=O)N1CCCC13CCN(C)C3)C2)c1cccc(C(F)F)c1F` (stereo partly drawn) [Example 413], the 50% inhibitory concentration (IC50) in test [1] and in test [2] (setting [4]) was under 1000 nM throughout. In addition, in test [3], the Kd is under 400 nM.
In the case of `C[C@@H](Nc1nc(Cl)nc2c1CN(C(=O)N1CCc3ccncc31)C2)c1cc(N)cc(C(F)(F)F)c1` [Example 142], the half-inhibitory concentration (IC50) in test [1] and in test [2] (setting [4]) was under 1000 nM throughout. The Kd in test [3] is under 400 nM.
Consider `CC(=O)NC1(C(=O)N2Cc3nc(Cl)nc(N[C@H](C)c4cccc(C(F)F)c4F)c3C2)CCCCC1` [Example 332], for which the 50% inhibitory concentration (IC50) in test [1] is under 1000 nM; in test [2] (setting [4]), over 1000 nM. The Kd in test [3] is over 400 nM.
In the case of `C[C@@H](Nc1nc(Cl)nc2c1CN(C(=O)N1C[C@H]3C[C@@H]1CN3)C2)c1cc(N)cc(C(F)(F)F)c1` [Example 360], the concentration for half-maximal inhibition (IC50) in test [1] was under 1000 nM; in test [2] (setting [4]), over 1000 nM. In test [3], the equilibrium dissociation constant (Kd) was under 400 nM.
Consider `C[C@@H](Nc1nc(Cl)nc2c1CN(C(=O)c1ccccn1)C2)c1cc(N)cc(C(F)(F)F)c1` [Example 65], for which the IC50 in test [1] and in test [2] (setting [4]) was under 1000 nM each time. The Kd in test [3] was over 400 nM.
Turning to `CC(CC(=O)N1Cc2nc(Cl)nc(N[C@H](C)c3cccc(C(F)F)c3F)c2C1)N1CCNCC1` (stereo partly drawn) [Example 296], the IC50 in test [1] and in test [2] (setting [4]) was under 1000 nM throughout. In addition, in test [3], the dissociation constant Kd is under 400 nM.
As for `C[C@@H](Nc1nc(Cl)nc2c1CN(C(=O)N1CC3COCC(C1)N3)C2)c1cccc(C(F)F)c1F` [Example 385], the concentration for half-maximal inhibition (IC50) in test [1] and in test [2] (setting [4]) was under 1000 nM throughout. Besides, in test [3], the Kd was under 400 nM.
As for `C[C@@H](Nc1nc(Cl)nc2c1CN(C(=O)C(C)(C)C)C2)c1cc(N)cc(C(F)(F)F)c1` [Example 274], the 50% inhibitory concentration (IC50) in test [1] and in test [2] (setting [4]) was under 1000 nM in each case. In addition, the Kd in test [3] is under 400 nM.
As to `COC1(C(=O)N2Cc3nc(Cl)nc(N[C@H](C)c4cccc(C(F)(F)CN)c4)c3C2)CCOCC1` [Example 525, N-[(1R)-1-[3-(2-amino-1,1-difluoroethyl)phenyl]ethyl]-2-chloro-6-(4-methoxyoxane-4-carbonyl)-5H,6H,7H-pyrrolo[3,4-d]pyrimidin-4-amine], the IC50 in test [1] and in test [2] (setting [4]) was under 1000 nM each time. Further, the Kd in test [3] was under 400 nM.
As for `C[C@@H](Nc1nc(Cl)nc2c1CN(C(=O)c1ccc(N3CCOCC3)cn1)C2)c1cc(N)cc(C(F)(F)F)c1` [Example 84], the half-inhibitory concentration (IC50) in test [1] was over 1000 nM; in test [2] (setting [4]) it was under 1000 nM. The dissociation constant Kd in test [3] was under 400 nM.
The like results for `C[C@@H](Nc1nc(Cl)nc2c1CN(C(=O)C1CN(C3CCOC3)C1)C2)c1cccc(C(F)F)c1F` (stereo partly drawn) [Example 295] were, in that order, under 1000 nM, under 1000 nM and under 400 nM.
On to `C[C@@H](Nc1nc(Cl)nc2c1C[C@H](N1CCOCC1)CC2)c1cc(N)cc(C(F)(F)F)c1` (single isomer, unassigned) [Example 169], for which the half-inhibitory concentration (IC50) in test [1] and in test [2] (setting [4]) was under 1000 nM in each case. Besides, in test [3], the dissociation constant Kd was under 400 nM.
Regarding `C[C@@H](Nc1nc(Cl)nc2c1CN(C(=O)CC1COCCN1C)C2)c1cccc(C(F)F)c1F` (stereo partly drawn) [Example 322], the IC50 in test [1] and in test [2] (setting [4]) was under 1000 nM in each case. The Kd in test [3] was under 400 nM.
Take `Cc1c([C@@H](C)Nc2nc(Cl)nc3c2CN(C(=O)N2CCOCC2)C3)cccc1C(F)(F)F` [Example 477, 2-chloro-N-[(1R)-1-[2-methyl-3-(trifluoromethyl)phenyl]ethyl]-6-(morpholine-4-carbonyl)-5H,6H,7H-pyrrolo[3,4-d]pyrimidin-4-amine]: the half-maximal inhibitory concentration (IC50) in test [1] and in test [2] (setting [4]) was under 1000 nM each time. The equilibrium dissociation constant (Kd) in test [3] was under 400 nM.
`C[C@@H](Nc1nc(Cl)nc2c1CN(C(=O)N1CCNC(C(F)(F)F)C1)C2)c1cc(N)cc(C(F)(F)F)c1` (stereo partly drawn) [Example 359]: the concentration for half-maximal inhibition (IC50) in test [1] and in test [2] (setting [4]) was under 1000 nM each time. In test [3], the dissociation constant (Kd) is under 400 nM.
For `C[C@@H](Nc1nc(Cl)nc2c1CN(C(=O)C1(C)CN(C3COC3)C1)C2)c1cccc(C(F)F)c1F` [Example 335], the 50% inhibitory concentration (IC50) in test [1] and in test [2] (setting [4]) was under 1000 nM each time. Moreover, the Kd in test [3] was under 400 nM.
For `C[C@@H](Nc1nc(Cl)nc2c1CN(S(=O)(=O)C1CC(F)(F)C1)CC2)c1cc(N)cc(C(F)(F)F)c1` [Example 456], the IC50 in test [1] and in test [2] (setting [4]) was under 1000 nM throughout. Also, in test [3], the dissociation constant (Kd) was under 400 nM.
In the case of `COc1ccc(S(=O)(=O)N2CCc3nc(Cl)nc(N[C@H](C)c4cc(N)cc(C(F)(F)F)c4)c3C2)cc1` [Example 454], the IC50 in test [1] and in test [2] (setting [4]) was under 1000 nM throughout. Moreover, in test [3], the equilibrium dissociation constant (Kd) is under 400 nM.
In the case of `C[C@@H](Nc1nc(Cl)nc2c1CN(C(=O)c1cc(-n3ccnc3)ccn1)C2)c1cc(N)cc(C(F)(F)F)c1` [Example 104], the half-inhibitory concentration (IC50) in test [1] and in test [2] (setting [4]) was under 1000 nM each time. In addition, in test [3], the Kd was under 400 nM.
Take `C[C@@H](Nc1nc(Cl)nc2c1CN(C(=O)C1CN(C)CCO1)C2)c1cccc(C(F)F)c1F` (stereo partly drawn) [Example 298]: the 50% inhibitory concentration (IC50) is under 1000 nM in test [1] and over 1000 nM in test [2] (setting [4]). In addition, the Kd in test [3] is under 400 nM.
As to `COc1ncc(C(=O)N2Cc3nc(Cl)nc(N[C@H](C)c4cc(N)cc(C(F)(F)F)c4)c3C2)cn1` [Example 60], the values for the IC50 in test [1] and in test [2] (setting [4]) were over 1000 nM and under 1000 nM, respectively. Further, in test [3], the Kd was under 400 nM.
For the compound `C[C@@H](Nc1nc(Cl)nc2c1CN(C(=O)c1ncccn1)C2)c1cc(N)cc(C(F)(F)F)c1` [Example 70], the IC50 in test [1] is over 1000 nM; in test [2] (setting [4]), under 1000 nM. In addition, the Kd in test [3] is over 400 nM.
Consider `C[C@@H](Nc1nc(Cl)nc2c1CN(C(=O)C13CCN(CC1)CC3)C2)c1cccc(C(F)F)c1F` [Example 313], for which the IC50 in test [1] and in test [2] (setting [4]) was under 1000 nM in each case. In addition, the Kd in test [3] was under 400 nM.
Turning to `C[C@@H](Nc1nc(Cl)nc2c1CN(C(=O)C1(C#N)CN(C)C1)C2)c1cccc(C(F)F)c1F` [Example 337], the IC50 in test [1] is under 1000 nM; in test [2] (setting [4]), over 1000 nM. In test [3], the Kd is under 400 nM.
`C[C@@H](Nc1nc(Cl)nc2c1CN(C(=O)N1CC3(CNC3)C1)C2)c1cccc(C(F)F)c1F` [Example 393]: the 50% inhibitory concentration (IC50) is under 1000 nM in test [1] and over 1000 nM in test [2] (setting [4]). Further, the dissociation constant Kd in test [3] was under 400 nM.
In the case of `C[C@@H](Nc1nc(Cl)nc2c1CN(C(=O)[C@@H]1C[C@@H]1C#N)CC2)c1cc(N)cc(C(F)(F)F)c1` [Example 205], the IC50 was over 1000 nM in test [1] and under 1000 nM in test [2] (setting [4]). Further, the Kd in test [3] was under 400 nM.

Usually IC50 stands for the concentration needed to halve the response being measured. For orientation: Kd means a measure of binding affinity in units of concentration.

The values above are taken from patent publication US20230096028A1, “BICYCLIC HETEROCYCLYL COMPOUNDS AND USES THEREOF” (Revolution Medicines, Inc., priority 2019, published 2023).
